Tests used:
rice seedlings [1] = assay: Effect of improving the growth of rice seedlings - 1 (soil irrigation in seedling box, harvest 33 days from sowing); type: in vivo, rice (koshihikari variety)
Protocol: 450 g/pot of soil was placed in a seedling box (the area was 1/120,000×10 a). The soil used was a purchased volcanic ash soil (andosol). […] Fertilizer application was carried out using a liquid fertilizer, Hyponica, at a rate of 3 kg-N/10 a. […] After 29 days from sowing, additional fertilizer application was carried out using a liquid fertilizer, Hyponica, at a rate of 3 kg-N/10 a. After 33 days from sowing, the plant bodies were harvested, and the fresh weight (roots) and the tillering number were measured.

rice seedlings [2] = assay: Verification of effect: treated seedlings transplanted into paddy field pot, harvest after three weeks; type: in vivo; conditions: 3 weeks after transplantation into paddy field pot; treated upon raising seedlings: 5-aminolevulinic acid hydrochloride 120 mg/10a and/or inabenfide 1200 g/10a; n = 3
Protocol: 450 g/pot of soil was placed in a seedling box (the area was 1/120,000×10 a). The soil used was a purchased volcanic ash soil (andosol). Rice seeds which had been subjected to brine grading using a brine having a specific gravity of 1.13, and had been germinated, were sowed at a rate of 15 seeds/pot, and the seeds were covered with soil at a depth of 1 to 2 cm (50 g/pot). Fertilizer application was carried out using a liquid fertilizer, Hyponica, at a rate of 5 kg-N/10 a. For each of the test zones (n=4), the soil was irrigated with combinations of inabenfide in an amount of treatment of 1,200 or 300 g/10 a, and 5-aminolevulinic acid hydrochloride in an amount of treatment of 600, 200 or 120 mg/10 a. After 22 days from sowing, the plant bodies were harvested, and the fresh weight (roots), the tillering number, the stem thickness and the chlorophyll content (SPAD value) were measured. The results for the fresh weight of roots and the tillering number under various conditions are presented in Table 6, and the results for the stem thickness and the chlorophyll content (SPAD value) under various conditions are presented in Table 7.
Seedlings were raised in the same manner as in Example 2. In regard to the treatment concentration upon raising seedlings, the treatment was carried out using 5-aminolevulinic acid hydrochloride at a concentration of 120 (mg/10 a) and inabenfide at a concentration of 1,200 (g/10 a). After the seedlings were raised, the roots of four seedlings were evenly cut to 2 cm, and the seedlings were transplanted into a pot simulating the state of paddy field. After three weeks from the transplantation into the pot simulating the state of paddy field, the plant bodies were harvested, and the dry weights of the aerial part and the root part, and the tillering number were measured. The various treatment conditions employed upon raising the seedlings, and the measurement values obtained after 3 weeks from the transplantation into paddy field pot are presented in Table 8.

rice seedlings [3] = assay: Effect of improving rice seedling growth - 2 (soil irrigation in seedling box, harvest 22 days from sowing); type: in vivo; conditions: for SPAD value (chlorophyll content) / Stem thickness: 5-aminolevulinic acid hydrochloride 600 mg/10 a and/or inabenfide 300 g/10 a, n = 15 to 17
Protocol: 450 g/pot of soil was placed in a seedling box (the area was 1/120,000×10 a). The soil used was a purchased volcanic ash soil (andosol). […] Fertilizer application was carried out using a liquid fertilizer, Hyponica, at a rate of 5 kg-N/10 a. […] The results for the fresh weight of roots and the tillering number under various conditions are presented in Table 6, and the results for the stem thickness and the chlorophyll content (SPAD value) under various conditions are presented in Table 7.

[4] = 5-aminolevulinic acid hydrochloride 200 mg/10 a and/or paclobutrazole 90 g/10 a
[5] = 5-aminolevulinic acid hydrochloride 120 mg/10 a, inabenfide 0
[6] = 5-aminolevulinic acid hydrochloride 200 mg/10 a, inabenfide 0
[7] = 5-aminolevulinic acid hydrochloride 600 mg/10 a, inabenfide 0
[8] = 5-aminolevulinic acid hydrochloride 200 mg/10 a and/or inabenfide 1200 g/10 a
[9] = 5-aminolevulinic acid hydrochloride 200 mg/10 a and/or prohexadione calcium salt 15 g/10 a
[10] = 5-aminolevulinic acid hydrochloride 200 mg/10 a and/or trinexapac-ethyl 1.25 g/10 a
[11] = 5-aminolevulinic acid hydrochloride 200 mg/10 a and/or uniconazole P 30 g/10 a
[12] = 5-aminolevulinic acid hydrochloride 200 mg/10 a and/or uniconazole P 30 g/10 a, n=4 zones
[13] = inabenfide 300 g/10 a, 5-aminolevulinic acid hydrochloride 0
[14] = inabenfide 1200 g/10 a, 5-aminolevulinic acid hydrochloride 0

CC(C)(C)[C@@H](O)[C@@H](Cc1ccc(Cl)cc1)n1cncn1 (racemic) [Paclobutrazole, (2RS,3RS)-1-(4-chlorophenyl)-4,4-dimethyl-2-(1H-1,2,4-triazol-1-yl)pentan-3-ol]
Average tillering number per plant body (rice seedlings [1]; [4]): 0.80 | Fresh weight of roots (rice seedlings [1]; [4]): 0.29 g

Cl.NCC(=O)CCC(=O)O [5-aminolevulinic acid hydrochloride]
Average tillering number per plant body (rice seedlings [2]): 6.7 | Degree of sturdiness (dry weight/height for shoots) (rice seedlings [2]): 0.052 g/cm | Dry weight of roots (rice seedlings [2]): 1.0 g | Dry weight of shoots (rice seedlings [2]): 3.2 g | Fresh weight of shoots (rice seedlings [2]): 14.1 g | Average tillering number per plant body (rice seedlings [3]; [5]): 0.03 | Fresh weight of roots (rice seedlings [3]; [5]): 0.35 g | Average tillering number per plant body (rice seedlings [3]; [6]): 0.01 | Fresh weight of roots (rice seedlings [3]; [6]): 0.36 g | SPAD value (chlorophyll content) (rice seedlings [3]): 28.70 | Stem thickness (rice seedlings [3]): 0.429 cm | Average tillering number per plant body (rice seedlings [3]; [7]): 0.00 | Fresh weight of roots (rice seedlings [3]; [7]): 0.35 g | Average tillering number per plant body (rice seedlings [1]; [8]): 0.00 | Fresh weight of roots (rice seedlings [1]; [8]): 0.29 g | Average tillering number per plant body (rice seedlings [1]; [4]): 0.00 | Fresh weight of roots (rice seedlings [1]; [4]): 0.29 g | Fresh weight of roots (rice seedlings [1]; [9]): 0.29 g | Average tillering number per plant body (rice seedlings [1]; [10]): 0.00 | Fresh weight of roots (rice seedlings [1]; [10]): 0.29 g | Average tillering number per plant body (rice seedlings [1]; [11]): 0.00 | Fresh weight of roots (rice seedlings [1]; [12]): 0.29 g

O=C(Nc1ccc(Cl)cc1C(O)c1ccccc1)c1ccncc1 (stereo not drawn) [Inabenfide]
Average tillering number per plant body (rice seedlings [2]): 8.0 | Degree of sturdiness (dry weight/height for shoots) (rice seedlings [2]): 0.060 g/cm | Dry weight of roots (rice seedlings [2]): 1.1 g | Dry weight of shoots (rice seedlings [2]): 3.6 g | Fresh weight of shoots (rice seedlings [2]): 15.8 g | SPAD value (chlorophyll content) (rice seedlings [3]): 29.23 | Stem thickness (rice seedlings [3]): 0.415 cm | Average tillering number per plant body (rice seedlings [3]; [13]): 0.11 | Fresh weight of roots (rice seedlings [3]; [13]): 0.35 g | Average tillering number per plant body (rice seedlings [3]; [14]): 0.41 | Fresh weight of roots (rice seedlings [3]; [14]): 0.35 g | Average tillering number per plant body (rice seedlings [1]; [8]): 0.19 | Fresh weight of roots (rice seedlings [1]; [8]): 0.34 g

CCC(=O)C1=C([O-])CC(C(=O)[O-])CC1=O.[Ca+2] (stereo not drawn) [Prohexadione calcium salt, calcium 3-oxido-5-oxo-4-propionyl-3-cyclohexene carboxylate]
Fresh weight of roots (rice seedlings [1]; [9]): 0.32 g

CCOC(=O)C1CC(=O)C(=C(O)C2CC2)C(=O)C1 (stereo not drawn) [Trinexapac-ethyl, ethyl=4-cyclopropyl-α-hydroxymethylene)-3,5-dioxocyclohexane carboxylate]
Average tillering number per plant body (rice seedlings [1]; [10]): 0.00 | Fresh weight of roots (rice seedlings [1]; [10]): 0.23 g

CC(C)(C)[C@H](O)/C(=C\c1ccc(Cl)cc1)n1cncn1 [Uniconazole P, (E)-(S)-1-(4-chlorophenyl)-4,4-dimethyl-2-(1H-1,2,4-triazol-1-yl)pent-1-en-3-ol]
Average tillering number per plant body (rice seedlings [1]; [11]): 0.86 | Fresh weight of roots (rice seedlings [1]; [12]): 0.28 g

Source: patent US20100331183A1, “AGENT FOR IMPROVING GOOD RICE SEEDLING GROWTH” (COSMO OIL CO., LTD, priority 2008, published 2010)
